Assays:
OCI-AML3 leukemic cells [1] = settings: acute injection, 1 μM (FIG. 5E)
Procedure: Oxygen consumption rates and extracellular acidification rates were measured using a 96-well Seahorse Bioanalyzer XFe96® or XFe24® according to the manufacturer's instructions (Agilent Technologies). Seahorse XF Base medium was supplemented with 1 mM pyruvate, 2 mM glutamine and 10 mM glucose in the case of Mitochondrial Stress Test and with 1 mM pyruvate, 2 mM glutamine and no glucose in the case of Glycolytic Stress Test. The pH of the Seahorse media was then adjusted at 7.4 prior to assay. In brief, leukemic cells were seeded into Seahorse 96-well (or 24-well) plates pre-coated for 3 h with poly-lysine (Sigma-Aldrich, P4707) at a density of 75,000 cells/well in 100 μL (or 150,000 cells/well, in 150 μL) of temperature/CO2 pre-adjusted Seahorse media per well. The Seahorse plates were then centrifuged at 1400 rpm for 5 min. An additional 75 μL (or 375 μL) of Seahorse media was then added and cells were eventually analyzed following the manufacturer's instructions by adding compounds in a constant volume of 25 μL (or 75 μL). Compounds were acutely injected in cells at a final concentration of 1 μM for Mubritinib, 1 μM for Oligomycin, 0.5 μM for FCCP, 0.5 μM for Rotenone/Antimycin A, Glucose 10 mM and 2-Deoxy-Glucose 50 mM.

[2] = system: Complex I enzyme activity in OCI-AML3 cells; settings: FIG. 8
Procedure: Complex I activity is determined by following the oxidation of NADH to NAD+ and the simultaneous reduction of a dye which leads to increased absorbance at OD=450 nm.

OCI-AML3 cells = system: OCI-AML3 cells
Procedure: (§1) FIGS. 5A-5J show the results on experiments assessing the mode of action of Mubritinib for mediating tumor cell death. FIG. 5A: OCI-AML3 leukemic cells were either pre-incubated for 4 hours with 6 mM N-acetyl-cysteine (NAC), a reactive oxygen species (ROS) scavenger, or with vehicle (water) before being treated with 100 nM Mubritinib for 24 h or vehicle (DMSO). […] FIGS. 5C and 5D show the levels of reduced and oxidized levels of glutathione, respectively, in OCI-AML3 treated or not with Mubritinib, as detected by liquid chromatography-mass spectrometry (LC/MS). […] FIG. 5G is a graph depicting dose-response curves upon Mubritinib treatment (6-day culture assay in 384-well plates) of OCI-AML3 and OCI-AML5 cell lines. FIGS. 5H-J are graphs depicting dose-response curves following treatment of OCI-AML3 and OCI-AML5 cell lines with other ETC inhibitors, namely Oligomycin (inhibitor of complex V, FIG. 5H), Rotenone (inhibitor of complex I, FIG. 5I) and Deguelin (inhibitor of complex I, FIG. 5J).
(§2) Dead cells were stained using Propidium iodide at a final concentration of 1 μg/mL.

OCI-AML3 leukemic cells [3] = settings: 500 nM, 24 h (FIG. 5B)
Procedure: as §1, §2

AML patient specimens = assay: Cell dose-response viability assay on AML patient specimens (primary and validation screen); type: cell-based, human; settings: Homo sapiens; poor prognostic triple-mutated specimens (FIG. 3G); read-out: median EC50 in AML specimens with simultaneous mutations in NPM1, DNMT3A and FLT3-ITD
Procedure: frozen AML mono-nucleated cells were thawed at 37° C. in Iscove's modified Dulbecco's medium (IMDM) containing 20% FBS and DNase I (100 μg/mL).
Patient cells were seeded in 384-well plates at a density of 5,000 cells in 50 μL per well. In the initial screen, compounds were added to seeded cells in serial dilutions (10 dilutions, 1:3, starting from 10 μM or 20 μM), in duplicates. Cells treated with 0.1% DMSO without additional compound were used as negative controls. Viable cell counts per well were evaluated after 6 days of culture using the CellTiterGlo® assay (Promega®) according to the manufacturer's instruction. The percent of inhibition was calculated as follows: 100−(100×(mean luminescence(compound)/mean luminescence(DMSO)); where mean-luminescence(compound) corresponds to the average of luminescent signals obtained for the compound-treated cells, and mean-luminescence(DMSO) corresponds to the average of luminescent signals obtained for the control DMSO-treated cells.

[4] = system: mitochondrial electron transfer chain (ETC) complex I; settings: cell free assay (FIG. 5F)
Procedure: as §1

## FC(F)(F)c1ccc(/C=C/c2nc(COc3ccc(CCCCn4ccnn4)cc3)co2)cc1 [Mubritinib, 1-(4-{4-[(2-{(E)-2-[4-(trifluoromethyl)phenyl]ethenyl}-1,3-oxazol-4-yl)methoxy]phenyl}butyl)-1H-1,2,3-triazole]
OCI-AML3 leukemic cells [1]
  oxygen consumption rate: impaired oxygen consumption rate
[2]
  inhibitory effect on complex I in diaphorase-type (NADH oxidation) assay: NADH-independent
OCI-AML3 cells; 4 hours pre-incubation with 6 mM NAC, then 100 nM Mubritinib for 24 h (FIG. 5A)
  Mubritinib-induced apoptosis in the presence of the ROS scavenger N-acetyl-cysteine (NAC): significantly decreased
OCI-AML3 cells; 24 hours, 100 nM or 10 μM (FIG. 4C)
  Annexin V staining (marker of apoptosis): increase in Annexin V staining
OCI-AML3 cells; 27 hours of treatment, compared to DMSO (FIG. 4B)
  number of dead (PI-positive) cells: increase in the number of dead (PI-positive) cells
OCI-AML3 cells; four days of treatment, different concentrations, dose-dependent (FIG. 4A)
  live cell counts (Propidium Iodide-negative cells): reduction of live cell counts
OCI-AML3 leukemic cells [3]
  level of ROS activity (hydroxyl, peroxyl) by DCFDA: increased
AML patient specimens
  EC50: 0.096 µM
[4]
  ETC Complex I activity: inhibitory effect on ETC Complex I activity

Reference: US20200188361A1, “USE OF MITOCHONDRIAL ACTIVITY INHIBITORS FOR THE TREATMENT OF POOR PROGNOSIS ACUTE MYELOID LEUKEMIA” (UNIVERSITE DE MONTREAL, priority 2016, published 2020)
